The subject of series [1] is A. actinomycetemcomitans biofilms. The series can be described thus: Activity against A. actinomycetemcomitans biofilms (XTT metabolic assay, crystal violet, plating). It is filed as cell-based, Aggregatibacter actinomycetemcomitans. On the procedure:
Aggregatibacter actinomycetemcomitans 1005 (Aa) (obtained from Dr. Helen Schreiner, New Jersey Dental School) were cultured on TSB agar (4% trypticase soy broth, 0.6% yeast extract, 0.8% dextrose, 0.4% NaHCO3, 75 μg/mL bactracin, 5 μg/mL vancomycin) at 37° C., 10% CO2. Single colonies were inoculated to TSB broth in 75-cm^2 tissue culture flasks. Biofilm was harvest upon the 90% confluence and resuspended into 1 mL PBS. Resuspension was vortexed vigorously for 1 minute and allowed to settle for 10 minutes. The supernatant was then diluted to 2.5×10^7 before seeded to 96-well plates to obtain even biofilms. Porphyromonas gingivalis W381 (obtained from Dr. Christopher Cutler, Stony Brook University Dental School) were cultured on TSB-blood agar (3% trypticase soy broth, 5% defibrinated sheep blood, 5 hemin, 0.5 μg/mL menadione, and 0.2 mg/mL KNO3) in an anaerobic chamber (80% N2, 10% H2, and 10% CO2) at 37° C. For biofilm formation, the same protocol as Aa under anaerobic condition was used.
Aa biofilms were cultured into 96-well plates (tissue culture treated, Falcon) for 18 hours. Serial dilutions of the mimetic compounds were made in 100 μL RPMI-1640 without Phenol red and added directly to the wells. Plates were cultured at 37° C., 10% CO2 for 24 hours. Medium was removed, and cell viability was evaluated by XTT assay using the In Vitro Toxicology Assay Kit (Sigma) according to the manufacturer's protocol. Metabolic activity was measured by reading in a plate-reader at 450 nm. […] Colonies were counted after 72 hours. […]
To quantify the activity of AMP mimetics on biofilms, the activity against two bacterial species associated with periodontitis, A. actinomycetemcomitans and P. gingivalis was measured under conditions that lead to biofilm formation (Kaplan et al., J. Bacteriol. 2003, 185, 1399-1404; Davey, Periodontol 2000, 2006, 42, 27-35). […] After 24 hours, the growth medium was replaced with RPMI (without Phenol Red) and an XTT assay was carried out to quantify the metabolic activity. Metabolic activity was quantified by measuring the OD at 450 nm and 600 nm. […]
On the technique in general: Formazan colour is commonly taken as a measure of viable cells.

For series [2], the system named is P. gingivalis biofilms. The series can be described thus: Activity against P. gingivalis biofilms (XTT metabolic assay, crystal violet). It is filed as cell-based, Porphyromonas gingivalis. How it is done: Aggregatibacter actinomycetemcomitans 1005 (Aa) (obtained from Dr. Helen Schreiner, New Jersey Dental School) were cultured on TSB agar (4% trypticase soy broth, 0.6% yeast extract, 0.8% dextrose, 0.4% NaHCO3, 75 μg/mL bactracin, 5 μg/mL vancomycin) at 37° C., 10% CO2. Single colonies were inoculated to TSB broth in 75-cm^2 tissue culture flasks. Biofilm was harvest upon the 90% confluence and resuspended into 1 mL PBS. Resuspension was vortexed vigorously for 1 minute and allowed to settle for 10 minutes. The supernatant was then diluted to 2.5×10^7 before seeded to 96-well plates to obtain even biofilms. […]
To test the activity against P. gingivalis biofilms, strain 381 was grown in 96-well plates under conditions (i.e., grown in a 96-well plate for 21 days in an anaerobic chamber in Brain Heart Infusion (BHI) medium) that favor biofilm formation (Davey, Periodontol 2000, 2006, 42, 27-35). mPE was added in serial dilutions, incubated anaerobically for 24 hours, and the medium was replaced with XTT in RPMI. Metabolic activity was quantified as above. To confirm the ability of XTT to measure activity in the biofilm, the growth medium was removed, and biomass was quantified by crystal violet staining, followed by destaining and quantification of the optical density. Staining was quantified by reading A600. […]

Series [3] relates to IL-8 secretion, OKF6/TERT cell line. The series can be described thus: IL-1β-induced IL-8 secretion (ELISA) in gingival epithelial cells. It is filed as cell-based, Human. On the procedure: (§1) The oral keratinocyte cell line OKF6/TERT (obtained from Dr. James Rhinewald, Harvard University) was cultured in Keratinocyte growth medium (Lonza) with hEGF, BPE (Bovine Pituitary Extract). Cells were subcultured in 6-well dishes 18 hours before stimulation. Cells were treated with 2 μg/mL, 5 μg/mL mPE with and without IL-1β stimulation (100 ng/mL, […]) for 2 hours, 4 hours and 18 hours. THP-1 cells were grown in suspension at RPMI 1640 with 10% FBS, and stimulated similarly.
(§2) Growth medium from stimulated cultures was collected either by aspiration (from keratinocytes) or after centrifugation at 1000 rpm for 15 minutes (for THP-1 cells). Cell debris was removed by centrifugation at 8,000 g (12,000 rpm) for 10 minutes at 4° C. To quantify IL-8 levels, the Human IL-8 Single Analyte ELISArray Kit (SA bioscience, MD) was used according to the manufacturer's protocol. The Cellular Activation of Signaling ELISA kit IKBα (SA bioscience, MD) was used to quantify both phosphorylated and whole IkBα levels in OKF6/TERT cells grown in a 96-well plate. All assays were performed in duplicate.
(§3) To examine the effect of mPE on the inflammatory response, gingival epithelial cells (the OKF6/TERT cell line) and the monocytic cell line, THP-1, were treated with rhIL-1β (100 ng/ml) in the presence of increasing concentrations (0, 2, or 5 ng/ml) of mPE. Secreted levels of IL-8 were measured by ELISA. […]

The test system of series [4] is IL-8 secretion, THP-1 cells. The series can be described thus: IL-1β-induced IL-8 secretion (ELISA) in THP-1 cells. It is filed as cell-based, Human. How it is done:
as §1, §2, §3
For orientation: ELISA stands for enzyme-linked immunosorbent assay.

Series [5] relates to OKF6/TERT and THP-1 cells. The series can be described thus: Cell viability by XTT assay and trypan blue exclusion. It is filed as cell-based, Human. The following applies: highest concentration of mPE. How it is done: To examine the effect of mPE on the inflammatory response, gingival epithelial cells (the OKF6/TERT cell line) and the monocytic cell line, THP-1, were treated with rhIL-1β (100 ng/ml) in the presence of increasing concentrations (0, 2, or 5 ng/ml) of mPE. Secreted levels of IL-8 were measured by ELISA. […] The experiment was carried out in quadruplicate; error bars represent±SD. The inhibition by mPE was significant at both concentrations with p<0.01. […] This was not a result of cytotoxicity, as cell viability (as measured by XTT assay and trypan blue exclusion) was no lower than 93-96% at the highest concentration of mPE. To determine whether this was due to an effect on IL-8 secretion or on gene regulation, mRNA was isolated from treated cells IL-8 mRNA levels were quantified by QPCR.

In series [6] the test system is IL-8 mRNA. The series can be described thus: IL-8 mRNA levels by QPCR in OKF6/TERT cells. It is filed as cell-based, Human. The following applies: IL-1β-treated cells, normalized to β2-Microglobulin, FIG. 4A. How it is done: Total cellular RNA was isolated from cultures using QIAshredder and RNeasy Mini Kit (Qiagen Valencia, Calif.). Total RNA was reversed transcribed using Superscript II reverse transcriptase kit as described by the manufacturer (Invitrogen, CA). Quantitative PCR (qPCR) was carried out using SYBR Green in a MyiQ iCycler (Bio-Rad). A total of 1 μl of cDNA (described above) was analyzed using final concentration of 100 nM of primers, 2×SYBR Green PCR Master Mix (Applied Biosystems, Foster City, Calif., USA) in volume of 20 μl. Prmer sequences were:
Amplification was carried out for 50 cycles (95° C., 15 seconds; 60° C., 60 seconds). The relative for mRNA expression in each sample was calculated based on its Ct value comparison to Ct of a housekeeping gene. […]
To examine the effect of mPE on the inflammatory response, gingival epithelial cells (the OKF6/TERT cell line) and the monocytic cell line, THP-1, were treated with rhIL-1β (100 ng/ml) in the presence of increasing concentrations (0, 2, or 5 ng/ml) of mPE. Secreted levels of IL-8 were measured by ELISA. […] This was not a result of cytotoxicity, as cell viability (as measured by XTT assay and trypan blue exclusion) was no lower than 93-96% at the highest concentration of mPE. To determine whether this was due to an effect on IL-8 secretion or on gene regulation, mRNA was isolated from treated cells IL-8 mRNA levels were quantified by QPCR. […]

Series [7] has as its system phosphorylated IκB / NF-κB activation. In words: IκB phosphorylation (CASE ELISA) in OKF6/TERT cells. The following applies: 100 ng/ml IL-1β, 2 or 4 hours, 0, 2 or 5 μg/ml mPE, FIG. 4B. It is filed as cell-based, Human. On the procedure: Growth medium from stimulated cultures was collected either by aspiration (from keratinocytes) or after centrifugation at 1000 rpm for 15 minutes (for THP-1 cells). Cell debris was removed by centrifugation at 8,000 g (12,000 rpm) for 10 minutes at 4° C. To quantify IL-8 levels, the Human IL-8 Single Analyte ELISArray Kit (SA bioscience, MD) was used according to the manufacturer's protocol. The Cellular Activation of Signaling ELISA kit IKBα (SA bioscience, MD) was used to quantify both phosphorylated and whole IkBα levels in OKF6/TERT cells grown in a 96-well plate. All assays were performed in duplicate. OKF6/TERT cells were treated with mPE as above in the presence or absence of IL-1β. Total mRNA was isolated and IL-8 and hBD-2 mRNA levels were quantified by QPCR normalized to β2-Microglobulin. Levels are shown relative to the no-mPE sample for each group. The experiment was carried out in triplicate; error bars represent±SD. […] To determine whether this was due to an inhibition of NF-κB activation, gingival epithelial cells were treated with mPE in the presence or absence of 100 ng/ml IL-1β, and IκB phosphorylation levels were quantified using the CASE assay (SA Biosciences, MD), and quantified relative to total IκB levels). In particular, OKF6/TERT cells were grown in 96-well plates, treated with 100 ng/ml IL-1β for 2 or 4 hours in the presence of 0, 2 or 5 μg/ml mPE. […]

The subject of series [8] is A. actinomycetemcomitans. The note with it: planktonic form; cited from earlier work.
Series [9] deals with P. gingivalis. The following applies: planktonic form; cited from earlier work.
Series [10] deals with LPS-mediated TNF-α production, macrophage cell line. The note with it: macrophage cells; cited from earlier work.
The subject of series [11] is oral pathogens, biofilm cultures of Streptococcus mutans. The note with it: Gram-positive and -negative, incl. S. mutans biofilm cultures; cited from earlier work.
Where [12] appears, read: rhIL-1β 100 ng/ml, mPE 0, 2, or 5 ng/ml as printed, FIG. 3.

Values after ≈ are worked out from the molar mass of the structure shown. “Also recorded” adds a separate entry of the source.

What is called MIC is the lowest concentration found to suppress growth. For `NCCc1cc(Br)cc(C#Cc2cccc(C#Cc3cc(Br)cc(CCN)c3)c2)c1` [mPE], the “reduction of metabolic activity (XTT)” value in [1] (2-hour exposure, 16 ng/ml, FIG. 1C) is recorded as 60%. Also, in series [1] (24 hours, FIG. 1A), the “antimicrobial activity against biofilms (XTT metabolic activity)” value is “potent antimicrobial activity”. The “reduction in viable colonies (plating) and biomass (crystal violet)” value in [1] (FIG. 1B) is recorded as “reduction in viable colonies paralleled the results from the XTT assay”. Moreover, the “activity against biofilm cultures” value in [2] is given as “potent activity”. The “concentration at which biofilm and metabolic activity decrease to a baseline” value in series [2] (24 hours anaerobic, XTT and crystal violet, FIG. 2) fell in the range of 4 to 8 µg/mL. Besides, the “concentration sufficient to inhibit IL-1β-induced secretion of IL-8” value in series [3] (gingival epithelial cells) and in series [4] (THP-1 cells) was 2 µg/mL each time. The “inhibition of IL-8 secretion” value in series [3] (setting [12]) and in [4] (setting [12]) was “dose-dependent inhibition” throughout. Moreover, the cell viability in series [5] was 93-96%. The “IL-8 mRNA levels” value in series [6] was “inhibitory effect is at the level of gene expression”. In addition, the “IL-1β-stimulated phosphorylated IκB levels / total IκB” value in series [7] is given as “reduction in activation of NF-κB; also recorded: rapid, dose-dependent reduction”. In addition, the MIC in series [8] was 0.4 µg/mL (≈ 0.766 µM); in series [9], 2.5 µg/mL (≈ 4.79 µM). Also, the “LPS-mediated TNF-α production” value in series [10] is “inhibited”. In series [11], the “activity against oral pathogens” value is on record as “active”.

The values above are taken from patent US20120258141A9, “Methods Of Immune Modulation” (UNIVERSITY OF MEDICINE AND DENTISTRY OF NEW JERSEY, priority 2010, published 2012).
